# Assay results published in the supplement of paper PMC10307832.
# Tests used:
# Experiment in all cases: relative viability (nuclei count vs DMSO), 5 days (fraction); higher = more cells survive
# [1] = compound: CC1=CC=C(C=C1)C(=O)CN2C3=C(CCCC3)SC2=N [Pifithrin_alpha] + CC(=O)Nc1cccc(-n2c(=O)n(C3CC3)c(=O)c3c(Nc4ccc(I)cc4F)n(C)c(=O)c(C)c32)c1 [Trametinib] (partner 0.02 µM)
# In short: (§1)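 Relative viability equals treated-well nuclei counts divided by vehicle-well nuclei counts. Counts came from 4× images of lung cancer cell lines grown in 1536-well plates for 5 days after pin-tool dosing on the day after seeding. Dosing used one drug alone or a fixed anchor-drug dose plus five library-drug doses (not always all listed) in √10 steps, and values are medians of duplicate plates.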
# [2] = compound: CC1=CC=C(C=C1)C(=O)CN2C3=C(CCCC3)SC2=N [Pifithrin_alpha] + COc1cccc2cc(-c3nc([C@H]4CC[C@H](C(=O)O)CC4)n4ncnc(N)c34)[nH]c12 [OSI-027] (partner 0.5 µM)
# In short: as §1
# Bemcentinib + Linsitinib = compound: Nc1nc(Nc2ccc3c(c2)CC[C@@H](N2CCCC2)CC3)nn1-c1cc2c(nn1)-c1ccccc1CCC2 [Bemcentinib] + C[C@]1(O)C[C@@H](c2nc(-c3ccc4ccc(-c5ccccc5)nc4c3)c3c(N)nccn32)C1 [Linsitinib] (partner 1 µM)
# In short: as §1
# Bemcentinib + Tozasertib = compound: Nc1nc(Nc2ccc3c(c2)CC[C@@H](N2CCCC2)CC3)nn1-c1cc2c(nn1)-c1ccccc1CCC2 [Bemcentinib] + Cc1cc(Nc2cc(N3CCN(C)CC3)nc(Sc3ccc(NC(=O)C4CC4)cc3)n2)n[nH]1 [Tozasertib] (partner 0.1 µM)
# In short: as §1
Cell Line,relative viability ([1]; first compound 1 µM),relative viability ([1]; first compound 3.162 µM),relative viability ([1]; first compound 10 µM),relative viability ([1]; first compound 31.62 µM),relative viability ([1]; first compound 100 µM),relative viability ([2]; first compound 1 µM),relative viability ([2]; first compound 3.162 µM),relative viability ([2]; first compound 10 µM),relative viability ([2]; first compound 31.62 µM),relative viability ([2]; first compound 100 µM),relative viability (Bemcentinib + Linsitinib; first compound 0.04 µM),relative viability (Bemcentinib + Linsitinib; first compound 0.1265 µM),relative viability (Bemcentinib + Linsitinib; first compound 0.4 µM),relative viability (Bemcentinib + Linsitinib; first compound 1.265 µM),relative viability (Bemcentinib + Linsitinib; first compound 4 µM),relative viability (Bemcentinib + Tozasertib; first compound 0.04 µM),relative viability (Bemcentinib + Tozasertib; first compound 0.1265 µM),relative viability (Bemcentinib + Tozasertib; first compound 0.4 µM),relative viability (Bemcentinib + Tozasertib; first compound 1.265 µM),relative viability (Bemcentinib + Tozasertib; first compound 4 µM)
LXF-289,0.696,0.731,0.716,0.587,0.718,0.53,0.766,0.737,0.68,0.729,0.955,1.06,0.972,0.991,0.995,0.179,0.2,0.185,0.185,0.205
NCI-H23,0.288,0.314,0.447,0.353,0.358,0.627,0.535,0.446,,0.535,0.576,0.692,0.554,0.72,0.568,0.389,0.632,0.327,0.407,0.366
NCI-H322M,0.436,0.307,0.514,0.509,0.539,0.536,0.531,0.503,0.419,0.508,0.994,0.978,0.9,1.01,1.04,0.5,0.582,0.483,0.527,0.525
NCI-H358,0.138,0.124,0.129,0.12,0.121,0.761,0.797,0.658,0.629,0.528,0.77,0.795,0.788,0.668,0.796,0.11,0.129,0.106,0.0963,0.119
NCI-H441,0.421,0.474,0.409,,0.333,0.524,0.662,0.614,,0.542,0.525,0.702,0.76,0.496,0.581,0.733,0.847,0.781,0.649,0.611
NCI-H460,0.0943,0.075,0.155,0.0707,0.103,0.613,0.541,0.397,0.274,0.48,0.907,1.04,1.08,0.983,0.86,0.432,0.619,0.525,0.364,0.524
NCI-H520,0.777,0.652,0.785,0.535,0.741,0.297,0.244,0.259,0.288,0.25,0.85,0.982,1.08,1.01,1.18,0.526,0.379,0.411,0.452,0.484
NCI-H596,0.762,0.675,0.76,0.587,0.675,0.809,0.65,0.557,0.588,0.621,1.03,1.03,1.03,1.17,1.06,0.87,1.05,1.14,0.94,0.799
